From patent US10570180B2, “Anti-bacterial agents and their use in therapy” (priority 2015, dated 2020) come the findings set out here.

The test system of assay [1] is E. coli BL21 (ripl). Kind of assay: Overexpression of APIM peptides in E. coli, growth. The format is cell-based. Particulars: induction with 1 mM IPTG, no cell-penetrating peptide; FIG. 9, 10. The source says: In order to verify further that the anti-microbial effect of the APIM peptides arise from the APIM sequence, peptides containing only the APIM sequence (i.e. without a cell-penetrating peptide) were over-expressed in E. coli using the expression vector pET28. The APIM peptide was expressed alone or as part of a fusion protein with EYFP. Expression of EYFP alone was used as a control.
The expression vectors containing the respective peptides were transfected into the bacterial strain E. coli BL21 (ripl). Single colonies, 4-6 of each strain, were inoculated in […] LB media (+Km/Clm) in 96 wells plates, and incubated at 37° C. Overnight cultures were diluted 1:100 and grown for 1 h before induction with 1 mM IPTG (initiating peptide expression). OD was measured every hour.
In order to verify that the extended APIM peptides have an anti-bacterial effect, peptides containing only the “extended” APIM sequence (i.e. without a cell-penetrating peptide) were over-expressed in E. coli using the expression vector pET28, using the method described in Example 7. […] The bacterial strain without a plasmid was used as a further control.

The test system of assay [2] is A. baumanii. The format is cell-based. The protocol: (§1) ATX-101 was dissolved in Mueller-Hinton broth to 1.25 times of the desired assay concentration. Antibiotics were dissolved in Mueller-Hinton broth and Mueller-Hinton broth with ATX-101 at a concentration of 1.25 times the highest desired assay concentrations. Antibiotics were pharmaceutical grade purchased from Sigma-Aldrich.
(§2) Two-fold serial dilutions of antibiotics were made in Mueller-Hinton with different concentrations of ATX-101, and the solutions were placed in four parallel wells is Nunc 384-well micro plates (30 μl per well in Nunc 242757 microplates). A group of 8 wells with no addition of antibiotics for each ATX-101 concentration was included on each micro plate as a growth reference.
(§3) At the day of analysis, overnight TSB cultures inoculated from freeze stocks (6 ml in 50 ml tube tilted to 45-degrees angle, 200 rpm, 2.5 cm amplitude, 37° C.) were diluted in TSB until the OD800 was 0.10, and further diluted 1:40 in Mueller-Hinton broth. Each well in the 384-well assay plates was inoculated with 7.5 μl of the diluted culture, giving the same dilution of the culture in the assay cultures. The microplates were placed in plastic bags and incubated without shaking at 37° C. The optical density at 600 nm in the microwells was measured after approximately 19 hours of incubation, and the relative growth yield was calculated based on the growth in the reference groups. The MIC value was set to the highest concentration giving less than 30% growth in all 4 parallel wells within the sample groups. The microplates were further incubated for 6 hours, and optical density in the cultures was measured once more for confirmation of the estimated MIC-values.
(§4) The MICS for various APIM peptides were determined for various bacteria, as described above.

For assay [3], the system named is E. faecium TO-12. The class given is cell-based. The procedure: as §1, §2, §3, §4
Assay [4] deals with Staphylococcus aureus NCTC 6571. The class given is cell-based. Particulars: NCTC 6571. The procedure:
as §1, §2, §3, §4

In assay [5] the test system is Staphylococcus aureus MRSA 1040s. The assay can be described thus: microbe, parasite or virus in culture. Particulars: for MIC of Erythromycin (Relative values): concentration of APIM peptide 15 μg/ml, MRSA 1040s; for MIC: 1040s. The format is cell-based. The procedure:
as §1, §2, §3
The APIM peptide was dissolved in Mueller-Hinton broth to 1.25 times of the desired assay concentration. Antibiotics were dissolved in Mueller-Hinton broth and Mueller-Hinton broth with APIM at a concentration of 1.25 times the highest desired assay concentrations. Antibiotics were pharmaceutical grade purchased from Sigma-Aldrich.
Two-fold serial dilutions of antibiotics were made in Mueller-Hinton with different concentrations of APIM, and the solutions were placed in four parallel wells in Nunc 384-well micro plates (30 μl per well in Nunc 242757 microplates). A group of 8 wells with no addition of antibiotics for each APIM concentration was included on each micro plate as growth reference.
as §3, with “inoculated” for “inoculated from”, “OD600” for “OD800”, “culture.” for “culture, giving the same dilution of the culture in the assay cultures.”, “yield in each well” for “yield”
In view of the anti-bacterial effect of ATX-101 on strains of MRSA, the MIC for a variety of APIM variants was determined using Staphylococcus aureus MRSA 1040s. […] A cell penetrating peptide (SEQ ID NO: 337) present in all of the APIM peptides, was used as a negative control.
Next, the effect of APIM peptides on the MIC of antibiotics was determined using Staphylococcus aureus MRSA 1040s.
as §4

Assay [6] has as its system E. faecium CCUG 37832 (TO-3). The format is cell-based, Enterococcus faecium. Particulars: CCUG 37832. The protocol:
as §1, §2, §3
Accordingly, concentrations of 8 μg/ml and 16 μg/ml of ATX-101 were combined with various antibiotics selected from; 2,4-Diamin, S. methizol, S. methoxa, S. dimetho, Surfaceta, Trimeth, Flumeq, Levoflox, Pruliflox, Metronid and Nitrofur.
as §4

For assay [7], the system named is bacteria. Kind of assay: MIC of other APIM peptides on bacteria. The class given is cell-based. To be noted: Example 2.
Assay [8] has as its target β-clamp protein from E. coli (Escherichia coli, UniProt P0A988). Kind of assay: Microscale thermophoresis (MST). The format is binding. To be noted: no data could be obtained. The procedure:
Microscale thermophoresis (MST) was used to determine the dissociation constant for various APIM containing peptides.
The β-clamp protein from E. coli was labeled with a fluorescent molecule. Concentration of PCNA was kept constant, whereas dilutions of each APIM containing peptide were prepared (1:1). In a mix of protein and peptide, the signal was recorded in all capillaries with varying concentrations of the unlabeled peptide, and any change of thermophoretic properties was observed as a change in fluorescence intensity.
For orientation: MST reads how a fluorescent partner responds to local heating, with and without ligand.

≈ marks a conversion by molar mass, not a printed value. Ends that are not written are not given here.

Sequence of β-clamp protein from E. coli (P0A988 whole entry): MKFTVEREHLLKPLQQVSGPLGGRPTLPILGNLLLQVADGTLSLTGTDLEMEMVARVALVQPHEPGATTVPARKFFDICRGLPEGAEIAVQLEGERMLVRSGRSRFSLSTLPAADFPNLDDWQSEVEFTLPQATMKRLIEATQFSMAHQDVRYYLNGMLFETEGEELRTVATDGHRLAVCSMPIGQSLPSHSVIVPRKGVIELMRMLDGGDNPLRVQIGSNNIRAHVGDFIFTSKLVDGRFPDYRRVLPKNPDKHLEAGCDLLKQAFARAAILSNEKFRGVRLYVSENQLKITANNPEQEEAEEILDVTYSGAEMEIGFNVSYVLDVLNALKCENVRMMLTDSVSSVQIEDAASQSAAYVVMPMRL

With RWLVP (APIM variant) [SEQ ID NO: 1292], the “bacterial growth on overexpression of APIM peptide (OD)” value (shortened to “bacterial growth on overexpression”) in assay [1] was “particularly effective”.

Regarding `CC[C@H](C)[C@H](NC(=O)[C@H](CCCCN)NC(=O)[C@H](CCCNC(=N)N)NC(=O)[C@H](CCCCN)NC(=O)[C@H](CCCCN)NC(=O)[C@H](CCCCN)NC(=O)[C@H](Cc1c[nH]c2ccccc12)NC(=O)[C@@H]1CCCN1C(=O)[C@@H](NC(=O)[C@H](CC(C)C)NC(=O)[C@H](Cc1c[nH]c2ccccc12)NC(=O)[C@H](CCCNC(=N)N)NC(=O)[C@H](CC(=O)O)NC(=O)[C@@H](N)CCSC)C(C)C)C(=O)N[C@@H](CCCNC(=N)N)C(=O)N[C@@H](CCCNC(=N)N)C(=O)N[C@@H](CCCNC(=N)N)C(=O)N[C@@H](CCCNC(=N)N)C(=O)N[C@@H](CCCNC(=N)N)C(=O)N[C@@H](CCCNC(=N)N)C(=O)N[C@@H](CCCNC(=N)N)C(=O)N[C@@H](CCCNC(=N)N)C(=O)N[C@@H](CCCNC(=N)N)C(=O)N[C@@H](CCCNC(=N)N)C(=O)N[C@@H](CCCNC(=N)N)C(=O)O` [SEQ ID NO: 1303], the MIC in assay [2] came out at 25.3 µM (≈ 91.1 µg/mL); in assay [3] it was 25.3 µM (≈ 91.1 µg/mL); in assay [4], 37.9 µM (≈ 137 µg/mL); in assay [6] it was 7.5 µM (≈ 27 µg/mL). In addition, the “MIC of Erythromycin (Relative values)” value in assay [5] is reported as 100.

Turning to “MDRWLSKWKKKRKIRRRRRRRRRRR [SEQ ID NO: 1302]”, the MIC in assay [3] worked out at 16.8 µM; in assay [4], 37.9 µM; in assay [6], 7.5 µM. For the same molecule, the “MIC of Erythromycin (Relative values)” value in assay [5] stood at 200.

For the molecule RWLTK (APIM variant) [SEQ ID NO: 1293], in assay [1], the “bacterial growth on overexpression” value is given as “particularly effective”.

For “MDRWSVKWKKKRKIRRRRRRRRRRR [SEQ ID NO: 1298]”, the MIC in assay [3] worked out at 37.9 µM; in assay [4], 37.9 µM; in assay [6], 7.5 µM. Also, the “MIC of Erythromycin (Relative values)” value in assay [5] is 100. In addition, in assay [7], the “MIC compared with ATX-101” value is given as “lower MICs than ATX-101”.

On to “MDRFSLKWKKKRKIRRRRRRRRRRR [SEQ ID NO: 1304]”, for which the MIC in assay [3] was found to be 25.3 µM; in assay [4] it was 37.9 µM; in assay [5], 7.5 µM; in assay [6], 7.5 µM.

In the case of “MDRWAVKWKKKRKIRRRRRRRRRRR [SEQ ID NO: 1299]”, the MIC is 25.3 µM in assay [3], 37.9 µM in assay [4] and 7.5 µM in assay [6]. Further, the “MIC of Erythromycin (Relative values)” value in assay [5] was 200. Also, the “MIC compared with ATX-101” value in assay [7] is listed as “lower MICs than ATX-101”.

On to `N=C(N)NCCC[C@H](NC(=O)[C@H](CCCNC(=N)N)NC(=O)[C@H](CCCNC(=N)N)NC(=O)[C@H](CCCNC(=N)N)NC(=O)[C@H](CCCNC(=N)N)NC(=O)[C@H](CCCNC(=N)N)NC(=O)[C@H](CCCNC(=N)N)NC(=O)[C@H](CCCNC(=N)N)NC(=O)[C@H](CCCNC(=N)N)NC(=O)[C@H](CCCNC(=N)N)NC(=O)[C@@H](N)CCCNC(=N)N)C(=O)O` [R11, RRRRRRRRRRR, reference compound], for which, in assay [5], the MIC stood at 118 µg/mL. For the same molecule, the “interaction with the β-clamp protein” value in assay [8] is “does not interact with the β-clamp protein”.

For the molecule “MDRFLSKWKKKRKIRRRRRRRRRRR [SEQ ID NO: 1301]”, the MIC came to 25.3 µM in assay [3], 37.9 µM in assay [4], 7.5 µM in assay [5] and 7.5 µM in assay [6].

In the case of “MDRWLTKWKKKRKIRRRRRRRRRRR [SEQ ID NO: 1300]”, the MIC in assay [3] was determined as 25.3 µM; in assay [4], 37.9 µM; in assay [6] it was 7.5 µM. Also, the “MIC of Erythromycin (Relative values)” value in assay [5] is listed as 100.

For RWLVK (APIM) [SEQ ID NO: 1290], the “bacterial growth on overexpression” value in assay [1] is “inhibits bacterial growth”.

As to RFSLK (APIM variant) [SEQ ID NO: 1291], the “bacterial growth on overexpression” value in assay [1] is listed as “particularly effective”.
